Experimental data as given in ChEMBL document CHEMBL4308841, “Synthesis, in vitro antiproliferative activity, and kinase inhibitory effects of pyrazole-containing diarylureas and diarylamides” (Eur J Med Chem, 2018).

Tests used:
[1] = tested on: SN12C; assay: Growth inhibition of human SN12C cells assessed as cell growth at 0.1 uM incubated for 48 hrs by sulforhodamine B assay relative to control; type: functional; conditions: read-out: Activity
[2] = tested on: RXF 393; assay: Growth inhibition of human RXF393 cells assessed as cell growth at 100 uM incubated for 48 hrs by sulforhodamine B assay relative to control; type: functional; conditions: RXF 393, 48 h, read-out: Activity
[3] = tested on: NCI-H322M; assay: Growth inhibition of human NCI-H322M cells assessed as cell growth at 1 uM incubated for 48 hrs by sulforhodamine B assay relative to control; type: functional; conditions: read-out: Activity
[4] = tested on: SR; assay: Growth inhibition of human SR cells assessed as cell growth at 1 uM incubated for 48 hrs by sulforhodamine B assay relative to control; type: functional; conditions: read-out: Activity
[5] = tested on: OVCAR-4; assay: Growth inhibition of human OVCAR4 cells assessed as cell growth at 0.01 uM incubated for 48 hrs by sulforhodamine B assay relative to control; type: functional; conditions: OVCAR-4, 48 h, read-out: Activity
[6] = tested on: KM12; assay: Growth inhibition of human KM12 cells assessed as cell growth at 100 uM incubated for 48 hrs by sulforhodamine B assay relative to control; type: functional; conditions: KM12, 48 h, read-out: Activity
[7] = tested on: T47D; assay: Growth inhibition of human T47D cells assessed as cell growth at 0.1 uM incubated for 48 hrs by sulforhodamine B assay relative to control; type: functional; conditions: read-out: Activity
[8] = tested on: HCT-116; assay: Growth inhibition of human HCT116 cells incubated for 48 hrs by sulforhodamine B assay; type: functional, cell-based; conditions: HCT-116, 48 h
[9] = tested on: ACHN; assay: Growth inhibition of human ACHN cells assessed as cell growth at 1 uM incubated for 48 hrs by sulforhodamine B assay relative to control; type: functional; conditions: read-out: Activity
[10] = tested on: UACC-257; assay: Growth inhibition of human UACC257 cells assessed as cell growth at 100 uM incubated for 48 hrs by sulforhodamine B assay relative to control; type: functional; conditions: UACC-257, 48 h, read-out: Activity
[11] = tested on: SNB-19; assay: Growth inhibition of human SNB19 cells assessed as cell growth at 1 uM incubated for 48 hrs by sulforhodamine B assay relative to control; type: functional; conditions: SNB-19, 48 h, read-out: Activity
[12] = tested on: MDA-MB-468; assay: Growth inhibition of human MDA-MB-468 cells assessed as cell growth at 1 uM incubated for 48 hrs by sulforhodamine B assay relative to control; type: functional; conditions: MDA-MB-468, 48 h, read-out: Activity
[13] = tested on: IGROV-1; assay: Growth inhibition of human IGROV1 cells assessed as cell growth at 0.1 uM incubated for 48 hrs by sulforhodamine B assay relative to control; type: functional; conditions: IGROV-1, 48 h, read-out: Activity
[14] = tested on: NCI-H226; assay: Growth inhibition of human NCI-H226 cells assessed as cell growth at 0.01 uM incubated for 48 hrs by sulforhodamine B assay relative to control; type: functional; conditions: NCI-H226, 48 h, read-out: Activity
[15] = tested on: UACC-62; assay: Growth inhibition of human UACC62 cells assessed as cell growth at 1 uM incubated for 48 hrs by sulforhodamine B assay relative to control; type: functional; conditions: UACC-62, 48 h, read-out: Activity
[16] = tested on: NCI-H23; assay: Growth inhibition of human NCI-H23 cells assessed as cell growth at 0.01 uM incubated for 48 hrs by sulforhodamine B assay relative to control; type: functional; conditions: NCI-H23, 48 h, read-out: Activity
[17] = tested on: SNB-19; assay: Growth inhibition of human SNB19 cells assessed as cell growth at 0.1 uM incubated for 48 hrs by sulforhodamine B assay relative to control; type: functional; conditions: SNB-19, 48 h, read-out: Activity
[18] = tested on: NCI-H23; assay: Growth inhibition of human NCI-H23 cells incubated for 48 hrs by sulforhodamine B assay; type: functional, cell-based; conditions: NCI-H23, 48 h
[19] = tested on: KM12; assay: Growth inhibition of human KM12 cells incubated for 48 hrs by sulforhodamine B assay; type: functional, cell-based; conditions: KM12, 48 h
[20] = tested on: A498; assay: Growth inhibition of human A498 cells assessed as cell growth at 0.01 uM incubated for 48 hrs by sulforhodamine B assay relative to control; type: functional; conditions: A498, 48 h, read-out: Activity
[21] = tested on: SF-539; assay: Growth inhibition of human SF539 cells assessed as cell growth at 0.01 uM incubated for 48 hrs by sulforhodamine B assay relative to control; type: functional; conditions: SF-539, 48 h, read-out: Activity
[22] = tested on: MOLT-4; assay: Growth inhibition of human MOLT4 cells assessed as cell growth at 0.01 uM incubated for 48 hrs by sulforhodamine B assay relative to control; type: functional; conditions: MOLT-4, 48 h, read-out: Activity
[23] = tested on: HCC 2998; assay: Growth inhibition of human HCC2998 cells assessed as cell growth at 100 uM incubated for 48 hrs by sulforhodamine B assay relative to control; type: functional; conditions: HCC 2998, 48 h, read-out: Activity
[24] = tested on: NCI-H460; assay: Growth inhibition of human NCI-H460 cells assessed as cell growth at 100 uM incubated for 48 hrs by sulforhodamine B assay relative to control; type: functional; conditions: NCI-H460, 48 h, read-out: Activity
[25] = tested on: M14; assay: Growth inhibition of human M14 cells assessed as cell growth at 1 uM incubated for 48 hrs by sulforhodamine B assay relative to control; type: functional; conditions: M14, 48 h, read-out: Activity
[26] = tested on: MDA-MB-435; assay: Growth inhibition of human MDA-MB-435 cells assessed as cell growth at 0.1 uM incubated for 48 hrs by sulforhodamine B assay relative to control; type: functional; conditions: MDA-MB-435, 48 h, read-out: Activity
[27] = tested on: HOP-62; assay: Growth inhibition of human HOP62 cells incubated for 48 hrs by sulforhodamine B assay; type: functional, cell-based; conditions: HOP-62, 48 h
[28] = tested on: TK-10; assay: Growth inhibition of human TK10 cells assessed as cell growth at 10 uM incubated for 48 hrs by sulforhodamine B assay relative to control; type: functional; conditions: TK-10, 48 h, read-out: Activity
[29] = tested on: HOP-62; assay: Growth inhibition of human HOP62 cells assessed as cell growth at 0.1 uM incubated for 48 hrs by sulforhodamine B assay relative to control; type: functional; conditions: HOP-62, 48 h, read-out: Activity
[30] = tested on: T47D; assay: Growth inhibition of human T47D cells incubated for 48 hrs by sulforhodamine B assay; type: functional, cell-based
[31] = read-out: LC50 (the source's name)
[32] = read-out: pLC50 (the source's name) (converted)

COc1cc(Cl)cc(-c2nn(-c3cccc(NC(=O)Nc4ccc(Cl)c(Cl)c4)c3)cc2-c2ccncc2)c1
growth at 0.1 µM [1]: 100% | growth at 100 µM [2]: -43% | growth at 1 µM [3]: 88% | growth at 1 µM [4]: 68% | growth at 0.01 µM [5]: 93% | growth at 100 µM [6]: -17% | growth at 0.1 µM [7]: 94% | IC50 [8]: 2.02 µM | GI50 ([8]; read-out: GI50): 2.02 µM | CC50 [8, 31]: > 100 µM | TGI ([8]; read-out: TGI): > 100 µM | GI50 ([8]; read-out: pGI50 (converted)): 2.04 µM | CC50 [8, 32]: > 100 µM | TGI ([8]; read-out: pTGI (converted)): > 100 µM | growth at 1 µM [9]: 91% | growth at 100 µM [10]: -36% | growth at 1 µM [11]: 89% | growth at 1 µM [12]: 69% | growth at 0.1 µM [13]: 101% | growth at 0.01 µM [14]: 96% | growth at 1 µM [15]: 75% | growth at 0.01 µM [16]: 93% | growth at 0.1 µM [17]: 90% | LC50 ([18]; read-out: LC50): > 100 µM | GI50 ([18]; read-out: pGI50 (converted)): 2.63 µM | LC50 ([18]; read-out: pLC50 (converted)): > 100 µM | TGI ([18]; read-out: pTGI (converted)): 9.12 µM | GI50 ([19]; read-out: GI50): 2.02 µM | CC50 [19, 31]: > 100 µM | TGI ([19]; read-out: TGI): 10.8 µM | GI50 ([19]; read-out: pGI50 (converted)): 2.04 µM | CC50 [19, 32]: > 100 µM | TGI ([19]; read-out: pTGI (converted)): 10.7 µM | growth at 0.01 µM [20]: 96% | growth at 0.01 µM [21]: 100% | growth at 0.01 µM [22]: 99% | growth at 100 µM [23]: -7% | growth at 100 µM [24]: -8% | growth at 1 µM [25]: 82% | growth at 0.1 µM [26]: 99% | GI50 ([27]; read-out: GI50): 3.36 µM | CC50 [27, 31]: > 100 µM | TGI ([27]; read-out: TGI): 35.1 µM | GI50 ([27]; read-out: pGI50 (converted)): 3.39 µM | CC50 [27, 32]: > 100 µM | TGI ([27]; read-out: pTGI (converted)): 35.5 µM | growth at 10 µM [28]: 19.8% | growth at 0.1 µM [29]: 94% | GI50 ([30]; read-out: GI50): 2.78 µM | CC50 [30, 31]: > 100 µM | TGI ([30]; read-out: TGI): 15.9 µM | GI50 ([30]; read-out: pGI50 (converted)): 2.75 µM | CC50 [30, 32]: > 100 µM | TGI ([30]; read-out: pTGI (converted)): 19.1 µM
